Results: patent publication US20240218022A1, “ANTI-VISTA MACROCYCLIC PEPTIDES AND COMPOSITIONS” (BRISTOL-MYERS SQUIBB COMPANY, priority 2022, published 2024)
Like-named read-outs stand apart in the source and are kept apart here. Starred links: 1 amine or outer side, 2 acyl side, 3 side chain; linkers in the order of their positions; H or OH if unused. Positions of bridges follow the written chain, without caps; N, C: chain ends. Non-standard residues stand in square brackets, D forms with d. Residues, ends and D or L forms follow the SMILES beside them. Phe(3-CF3) = N[C@@H](Cc1cccc(C(F)(F)F)c1)C(=O)O; Phe(4-CF3) = N[C@@H](Cc1ccc(C(F)(F)F)cc1)C(=O)O; Phe(4-CONH2) = NC(=O)c1ccc(C[C@H](N)C(=O)O)cc1; γGlu = O=C(O)[C@H](CCC(=O)[*:2])N[*:1]; 2Nal = N[C@@H](Cc1ccc2ccccc2c1)C(=O)O; βAsp = O=C(O)[C@H](CC(=O)[*:2])N[*:1]; NMeL = CN[C@@H](CC(C)C)C(=O)O; Ahp(2) = CCCCC[C@H](N)C(=O)O; NMeNle = CCCC[C@H](NC)C(=O)O; Tle = CC(C)(C)[C@H](N)C(=O)O; NHexGly = CCCCCCNCC(=O)O; NMeA = CN[C@@H](C)C(=O)O; Nle = CCCC[C@H](N)C(=O)O; Aun = NCCCCCCCCCCC(=O)O; Abu = CC[C@H](N)C(=O)O; AEEA = NCCOCCOCC(=O)O; NBuGly = CCCCNCC(=O)O

Target: T1, mouse VISTA (mVISTA) (Mus musculus, UniProt Q9D659)
T1 construct: expressed in transfected cells; host or cells: Human embryonic kidney 293T cells
T1 sequence (Q9D659 33-308): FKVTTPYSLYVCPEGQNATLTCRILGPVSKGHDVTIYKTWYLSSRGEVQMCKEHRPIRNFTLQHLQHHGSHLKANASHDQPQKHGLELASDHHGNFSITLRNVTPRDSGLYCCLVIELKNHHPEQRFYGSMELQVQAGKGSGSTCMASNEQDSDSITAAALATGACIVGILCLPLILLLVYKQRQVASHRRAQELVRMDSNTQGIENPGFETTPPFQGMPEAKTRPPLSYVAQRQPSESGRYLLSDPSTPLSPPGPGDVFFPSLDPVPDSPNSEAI
Experiment: Cell-Based Binding High-Content Assay For mVISTA (HC CBA mVISTA)
Summary of the method: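 Read-out: Alexa 647–streptavidin signal imaged on fixed, Hoechst-stained mVISTA-293T cells, with IC50 taken from a four-parameter logistic curve. Compounds competed with 2 nM biotinylated peptide for 30 min at room temperature, tested under both no-wash and wash (1 h compound, media exchange, 1 h) formats.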

[1] = cell-based binding high-content assay, mVISTA, read-out: HC CBA miPr ISTA IC50
[2] = cell-based binding high-content assay, mVISTA, the 16th table, read-out: HC CBA mVISTA IC50
[3] = the 20th table, scaffold drawing 23, read-out: HC CBA mVISTA IC50
[4] = 293T cells expressing mouse VISTA, competition with biotinylated peptide (2 nM), read-out: HC CBA mVISTA IC50

CCCCCCN1CC(=O)N[C@@H](Cc2ccc(O)cc2)C(=O)N[C@@H](CC)C(=O)N[C@@H](CC(N)=O)C(=O)N[C@@H](CCCNC(=N)N)C(=O)N(C)[C@@H](CCCC)C(=O)N[C@@H](CCCCC)C(=O)N2CCC[C@H]2C(=O)N[C@@H](C(C)(C)C)C(=O)N[C@@H](CO)C(=O)N[C@H](C(=O)N[C@@H](CC(=O)NCCOCCOCC(=O)N[C@@H](CC(=O)O)C(=O)NCCOCCOCC(=O)NCCCCCCCCCCC(=O)O)C(=O)O)CSCC(=O)N[C@@H](Cc2ccccc2)C(=O)N[C@@H](Cc2ccc(O)cc2)C(=O)N[C@@H](CC(=O)O)C1=O [compound 2059] ({CH2CO}-FYD[NHexGly]Y[Abu]NR[NMeNle][Ahp(2)]P[Tle]SC[βAsp][AEEA]D[AEEA][Aun]-OH; thioether N-14)
IC50 [1]: 37.4 nM

CCCCCCN1CC(=O)N[C@@H](Cc2ccc(O)cc2)C(=O)N[C@@H](CC(C)C)C(=O)N[C@@H](CC(N)=O)C(=O)N[C@@H](CCCNC(=N)N)C(=O)N(C)[C@@H](CCCC)C(=O)N[C@@H](CCCCC)C(=O)N2CCC[C@H]2C(=O)N[C@@H](C(C)(C)C)C(=O)N[C@@H](CC(=O)O)C(=O)N[C@H](C(=O)N[C@@H](CC(=O)NCCOCCOCC(=O)N[C@@H](CC(=O)O)C(=O)NCCOCCOCC(=O)NCCCCCCCCCCC(=O)O)C(=O)O)CSCC(=O)N[C@@H](Cc2ccc(C(N)=O)cc2)C(=O)N[C@@H](Cc2ccc(O)cc2)C(=O)N[C@@H](CC(=O)O)C1=O [compound 2088] ({CH2CO}-[Phe(4-CONH2)]YD[NHexGly]YLNR[NMeNle][Ahp(2)]P[Tle]DC[βAsp][AEEA]D[AEEA][Aun]-OH; thioether N-14)
IC50 (cell-based binding high-content assay, mVISTA, read-out: HC CBA miPrISTA IC50): 16.9 nM

CCCCCCN1CC(=O)N[C@@H](Cc2ccc(O)cc2)C(=O)N[C@@H](CCCC)C(=O)N[C@@H](CC(N)=O)C(=O)N[C@@H](CCCNC(=N)N)C(=O)N(C)[C@@H](C)C(=O)N[C@@H](CCCCC)C(=O)N2CCC[C@H]2C(=O)N[C@@H](C(C)(C)C)C(=O)N[C@@H](CO)C(=O)N[C@H](C(=O)NCCOCCOCC(=O)N[C@@H](CCC(=O)NCCOCCOCC(=O)NCCCCCCCCCCC(=O)O)C(=O)O)CSCC(=O)N[C@@H](Cc2ccccc2)C(=O)N[C@@H](Cc2c[nH]c3ccccc23)C(=O)N[C@@H](CC(=O)O)C1=O [compound 2247] ({CH2CO}-FWD[NHexGly]Y[Nle]NR[NMeA][Ahp(2)]P[Tle]SC[AEEA][γGlu][AEEA][Aun]-OH; thioether N-14)
IC50 (read-out: HC CBA mVISTA IC50): 29.6 nM

CCCCCCN1CC(=O)N[C@@H](Cc2ccc(O)cc2)C(=O)N[C@@H](CCCCC)C(=O)N[C@@H](CC(N)=O)C(=O)N[C@@H](CCCNC(=N)N)C(=O)N(C)[C@@H](CCCC)C(=O)N[C@@H](CCCCC)C(=O)N2CCC[C@H]2C(=O)N[C@@H](C(C)C)C(=O)N[C@@H](C(C)C)C(=O)N[C@H](C(=O)NCC(=O)O)CSCC(=O)N[C@@H](Cc2ccccc2)C(=O)N[C@@H](Cc2c[nH]c3ccccc23)C(=O)N[C@@H](CC(=O)O)C1=O [Example 1385] ({CH2CO}-FWD[NHexGly]Y[Ahp(2)]NR[NMeNle][Ahp(2)]PVVCG-OH; thioether N-14)
IC50 (read-out: HC CBA mVISTA IC50): 10.5 nM

CCCCCCN1CC(=O)N[C@@H](Cc2ccc(O)cc2)C(=O)N[C@@H](CC(C)C)C(=O)N[C@@H](CC(N)=O)C(=O)N[C@@H](CCCNC(=N)N)C(=O)N(C)[C@@H](CC(C)C)C(=O)N[C@@H](CCCCC)C(=O)N2CCC[C@H]2C(=O)N[C@@H](C(C)(C)C)C(=O)N[C@@H](CC(=O)O)C(=O)N[C@H](C(=O)N[C@@H](CC(=O)NCCOCCOCC(=O)N[C@@H](CC(=O)O)C(=O)NCCOCCOCC(=O)NCCCCCCCCCCC(=O)O)C(=O)O)CSCC(=O)N[C@@H](Cc2ccccc2)C(=O)N[C@@H](Cc2c[nH]c3ccccc23)C(=O)N[C@@H](CC(=O)O)C1=O [compound 2032] ({CH2CO}-FWD[NHexGly]YLNR[NMeL][Ahp(2)]P[Tle]DC[βAsp][AEEA]D[AEEA][Aun]-OH; thioether N-14)
IC50 [1]: 28.1 nM

CCCCCCN1CC(=O)N[C@@H](Cc2ccc(O)cc2)C(=O)N[C@@H](C(C)C)C(=O)NCC(=O)N[C@@H](CCCNC(=N)N)C(=O)N[C@@H](CC(C)C)C(=O)N[C@@H](CCCCC)C(=O)N2CCC[C@H]2C(=O)N[C@@H](C(C)C)C(=O)N[C@@H](CC(=O)O)C(=O)N[C@H](C(=O)N[C@@H](CC(C)C)C(N)=O)CSCC(=O)N[C@@H](Cc2ccc3ccccc3c2)C(=O)N[C@@H](Cc2ccc(O)cc2)C(=O)N[C@@H](CC(=O)O)C1=O [Ex 1309] ({CH2CO}-[2Nal]YD[NHexGly]YVGRL[Ahp(2)]PVDCL-NH2; thioether N-14)
IC50 [2]: 5.2 nM

CCCCCCN1CC(=O)N[C@@H](Cc2ccc(O)cc2)C(=O)N[C@@H](C(C)C)C(=O)NCC(=O)N[C@@H](CCCNC(=N)N)C(=O)N[C@@H](CC(C)C)C(=O)N[C@@H](CCCCC)C(=O)N2CCC[C@H]2C(=O)N[C@@H](C(C)C)C(=O)N[C@@H](CC(=O)O)C(=O)N[C@H](C(=O)NCC(N)=O)CSCC(=O)N[C@@H](Cc2ccc(OC)cc2)C(=O)N[C@@H](Cc2ccc(O)cc2)C(=O)N[C@@H](CC(=O)O)C1=O [compound 1477] ({CH2CO}-Y(Me)YD[NHexGly]YVGRL[Ahp(2)]PVDCG-NH2; thioether N-14)
IC50 [3]: 49.2 nM

CCCCCCN1CC(=O)N[C@@H](Cc2ccc(O)cc2)C(=O)N[C@@H](CCCCC)C(=O)N[C@@H](CC(N)=O)C(=O)N[C@@H](CCCNC(=N)N)C(=O)N[C@@H](Cc2c[nH]c3ccccc23)C(=O)N[C@@H](CCCCC)C(=O)N2CCC[C@H]2C(=O)N[C@@H](C(C)C)C(=O)N[C@@H](CO)C(=O)N[C@H](C(=O)NCC(=O)O)CSCC(=O)N[C@@H](Cc2ccccc2)C(=O)N[C@@H](Cc2ccc(O)cc2)C(=O)N[C@@H](CC(=O)O)C1=O [Example 1098] ({CH2CO}-FYD[NHexGly]Y[Ahp(2)]NRW[Ahp(2)]PVSCG-OH; thioether N-14)
IC50 [4]: 14.7 nM

CCCCCCN1CC(=O)N[C@@H](Cc2ccc(O)cc2)C(=O)N[C@@H](CC(C)C)C(=O)N[C@@H](CC(N)=O)C(=O)N[C@@H](CCCNC(=N)N)C(=O)N[C@@H](CC(C)C)C(=O)N[C@@H](CCCCC)C(=O)N2CCC[C@H]2C(=O)N[C@@H](C(C)C)C(=O)N[C@@H](C(C)C)C(=O)N[C@H](C(=O)NCC(=O)O)CSCC(=O)N[C@@H](Cc2ccc(C(F)(F)F)cc2)C(=O)N[C@@H](Cc2c[nH]c3ccccc23)C(=O)N[C@@H](CC(=O)O)C1=O [compound 1460] ({CH2CO}-[Phe(4-CF3)]WD[NHexGly]YLNRL[Ahp(2)]PVVCG-OH; thioether N-14)
IC50 [3]: 8.7 nM

CCCCC[C@@H]1NC(=O)[C@H](CC(C)C)NC(=O)[C@H](CCCNC(=N)N)NC(=O)CNC(=O)[C@H](C(C)C)NC(=O)[C@H](Cc2ccc(O)cc2)NC(=O)CN(CCCC)C(=O)[C@H](CC(=O)O)NC(=O)[C@H](Cc2ccc(O)cc2)NC(=O)[C@H](Cc2ccc3ccccc3c2)NC(=O)CSC[C@@H](C(=O)NCC(=O)O)NC(=O)[C@H](CC(=O)O)NC(=O)[C@H](C(C)C)NC(=O)[C@@H]2CCCN2C1=O [Ex 1269] ({CH2CO}-[2Nal]YD[NBuGly]YVGRL[Ahp(2)]PVDCG-OH; thioether N-14)
IC50 [2]: 15.7 nM

CCCCCCN1CC(=O)N[C@@H](Cc2ccc(O)cc2)C(=O)N[C@@H](CC(C)C)C(=O)N[C@@H](CC(N)=O)C(=O)N[C@@H](CCCNC(=N)N)C(=O)N[C@@H](CC(C)C)C(=O)N[C@@H](CCCCC)C(=O)N2CCC[C@H]2C(=O)N[C@@H](C(C)C)C(=O)N[C@@H](C)C(=O)N[C@H](C(=O)NCC(=O)O)CSCC(=O)N[C@@H](Cc2ccccc2)C(=O)N[C@@H](Cc2ccc(O)cc2)C(=O)N[C@@H](CC(=O)O)C1=O [Example 1008] ({CH2CO}-FYD[NHexGly]YLNRL[Ahp(2)]PVACG-OH; thioether N-14)
IC50 [4]: 34.9 nM

CCCCCCN1CC(=O)N[C@@H](Cc2ccc(O)cc2)C(=O)N[C@@H](CC(C)C)C(=O)N[C@@H](CC(N)=O)C(=O)N[C@@H](CCCNC(=N)N)C(=O)N[C@@H](CC(C)C)C(=O)N[C@@H](CCCCC)C(=O)N2CCC[C@H]2C(=O)N[C@@H](C(C)C)C(=O)N[C@@H](CO)C(=O)N[C@H](C(=O)N[C@@H](CCC(=O)NCCCCCCCCCCC(=O)O)C(=O)O)CSCC(=O)N[C@@H](Cc2ccccc2)C(=O)N[C@@H](Cc2ccc(O)cc2)C(=O)N[C@@H](CC(=O)O)C1=O [Example 2127] ({CH2CO}-FYD[NHexGly]YLNRL[Ahp(2)]PVSC[γGlu][Aun]-OH; thioether N-14)
IC50 (read-out: HC CBA mVISTA IC50): 15.9 nM

CCCCCCN1CC(=O)N[C@@H](Cc2ccc(O)cc2)C(=O)N[C@@H](CCCCC)C(=O)N[C@@H](CC(N)=O)C(=O)N[C@@H](CCCNC(=N)N)C(=O)N[C@@H](C)C(=O)N[C@@H](CCCCC)C(=O)N2CCC[C@H]2C(=O)N[C@@H](C(C)C)C(=O)N[C@@H](CO)C(=O)N[C@H](C(=O)NCC(N)=O)CSCC(=O)N[C@@H](Cc2ccccc2)C(=O)N[C@@H](Cc2ccc(O)cc2)C(=O)N[C@@H](CC(=O)O)C1=O [Example 1089] ({CH2CO}-FYD[NHexGly]Y[Ahp(2)]NRA[Ahp(2)]PVSCG-NH2; thioether N-14)
IC50 [4]: 37.9 nM

CCCCCCN1CC(=O)N[C@@H](Cc2ccc(O)cc2)C(=O)N[C@@H](CC(C)C)C(=O)N[C@@H](CC(N)=O)C(=O)N[C@@H](CCCNC(=N)N)C(=O)N(C)[C@@H](CCCC)C(=O)N[C@@H](CCCCC)C(=O)N2CCC[C@H]2C(=O)N[C@@H](C(C)(C)C)C(=O)N[C@@H](CO)C(=O)N[C@H](C(=O)NCC(N)=O)CSCC(=O)N[C@@H](Cc2cccc(C(F)(F)F)c2)C(=O)N[C@@H](Cc2ccc(O)cc2)C(=O)N[C@@H](CC(=O)O)C1=O [compound 1207] ({CH2CO}-[Phe(3-CF3)]YD[NHexGly]YLNR[NMeNle][Ahp(2)]P[Tle]SCG-NH2; thioether N-14)
IC50 (read-out: HC CBA mVISTA IC50): 24.5 nM
